Laboratory results from patent US12702657B2, “Treatment and prevention of dengue disease” (Janssen Pharmaceuticals, Inc., priority 2019, dated 2026).

Tested on: DENV 1/45AZ5
Assay: Antiviral activity against DENV 1/45AZ5 in non-human primates, prophylactic setting
Format: in vivo, rhesus monkeys (Macaca mulatta)
Conditions: 6 mg/kg q.d. oral, day -3 to day 10, follow-up to day 28 post infection
Description: The antiviral activity of compound (a) DENV in a prophylactic setting was assessed in rhesus monkeys (Macaca mulatta) infected with strain DENV 1/45AZ5. Oral dosing of compound (a) (6 mg/kg) was started 3 days before infection with DENV (day −3) and continued with daily dosing until 10 days post infection. On day 0, the animals were intradermally inoculated with 0.5 mL of DENV 1/45AZ5 (1.2×105 plaque-forming units [PFU/mL]). Animals were followed up until day 28 post infection (FIG. 13 X).
The rhesus monkeys were divided in 2 groups representing the following treatment regimens: • (i) Vehicle 100% PEG400 (n=6) • (ii) Group 1: 6 mg/kg/dose, q.d. (n=6),

COc1cc(NC(C(=O)c2c[nH]c3ccc(OC(F)(F)F)cc23)c2ccc(Cl)cc2OC)cc(S(C)(=O)=O)c1 (stereo not shown) [compound (a)]
DENV RNA during the complete study period: undetectable
